Experimental data taken from US20180186742A1, “PICOLINAMIDES AS FUNGICIDES” (Dow AgroSciences LLC, priority 2017, published 2018).
Like-named read-outs stand apart in the source and are kept apart here.

How the values were obtained:
Format in all cases: in vivo
Phakopsora pachyrhizi = experiment: Asian soybean rust (PHAKPA), disease control on soybean seedlings; details: High volume application at 25 ppm
Procedure, shortened: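 Two-week-old Williams 82 soybean seedlings were sprayed to run-off with compound in acetone/water (1:9) containing 0.011% Tween 20. Inoculation was 3 days before (curative) or 1 day after (protectant) treatment, followed by 24 h dark dew at 22 °C, 100% RH, then 23 °C; disease severity scored on sprayed leaves.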

Puccinia triticina = experiment: Wheat brown rust (PUCCRT), disease control on wheat seedlings; details: low volume application at 121.5 g/H, wheat brown rust
Procedure, shortened: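 Compounds in acetone, diluted with nine volumes of water containing 110 ppm Triton X-100, sprayed to run-off on first-leaf Yuma wheat seedlings; track-spray tests used EC formulations with 0.1% Trycol 5941. Puccinia triticina spores applied before or after treatment. Overnight dark dew room at 22° C, 100% humidity, then greenhouse at 24° C.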

Zymoseptoria tritici = experiment: Leaf blotch of wheat (SEPTTR), disease control on wheat seedlings; details: low volume application at 121.5 g/H, wheat leaf blotch
Procedure, shortened: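 Yuma wheat seedlings with the first leaf fully emerged were sprayed to run-off with compound in acetone plus nine volumes of water containing 110 ppm Triton X-100; track-spray tests used EC formulations with 0.1% Trycol 5941. Z. tritici inoculation came before or after treatment, followed by 100% RH dew periods and a 20 °C greenhouse. Percent control was calculated from severity versus untreated plants.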

[1] = 24 h, 1 Day Protectant, read-out: PHAKPA 1DP disease control rating
[2] = 72 h, 3 Day Curative, read-out: PHAKPA 3DC disease control rating
[3] = 24 h, 1 Day Protectant, read-out: PUCCRT 1DP disease control, LV activity
[4] = 72 h, 3 Day Curative, read-out: PUCCRT 3DC disease control, LV activity
[5] = 24 h, 1 Day Protectant, read-out: SEPTTR 1DP disease control, LV activity
[6] = 72 h, 3 Day Curative, read-out: SEPTTR 3DC disease control, LV activity

| Structure (SMILES) | pest or weed control at 25 ppm (Phakopsora pachyrhizi; [1]) | pest or weed control at 25 ppm (Phakopsora pachyrhizi; [2]) | pest or weed control at 121.5 g/ha (Puccinia triticina; [3]) | pest or weed control at 121.5 g/ha (Puccinia triticina; [4]) | pest or weed control at 121.5 g/ha (Zymoseptoria tritici; [5]) | pest or weed control at 121.5 g/ha (Zymoseptoria tritici; [6]) |
| --- | --- | --- | --- | --- | --- | --- |
| COc1ccnc(C(=O)N[C@@H](C)C(=O)O[C@@H](C)[C@H](c2ccc(Cl)cc2Cl)C(C)C)c1OC(C)=O [Compound 367] | > 80% | > 80% | > 80% | > 80% | > 80% | < 80% |
| COc1ccnc(C(=O)N[C@@H](C)C(=O)O[C@@H](C)[C@@H](c2ccc(F)cc2F)C(C)C)c1OC(C)=O [Compound 368] | < 80% | < 80% | < 80% | < 0% | < 80% | < 80% |
| COc1ccnc(C(=O)N[C@@H](C)C(=O)O[C@@H](C)[C@@H](c2ccc(C)cc2F)C(C)C)c1OC(C)=O [Compound 369] | < 80% | < 80% | > 80% | < 80% | < 80% | < 80% |
| COc1ccnc(C(=O)N[C@@H](C)C(=O)O[C@@H](C)[C@@H](c2ccc(Cl)cc2Cl)C(C)C)c1OC(C)=O [Compound 370] | < 80% | < 80% | < 80% | < 0% | < 80% | < 80% |
| COc1ccnc(C(=O)N[C@@H](C)C(=O)O[C@@H](C)[C@H](c2ccccc2OC(C)C)C(C)C)c1OC(C)=O [Compound 376] | > 80% | < 80% | > 80% | < 80% | < 80% | < 80% |
| COc1ccnc(C(=O)N[C@@H](C)C(=O)O[C@@H](C)[C@H](c2ccc(OC(C)C)cc2)C(C)C)c1OC(C)=O [Compound 377] | < 80% | < 80% | > 80% | < 80% | < 80% | < 80% |
| COc1ccnc(C(=O)N[C@@H](C)C(=O)O[C@@H](C)[C@H](c2ccc(OC(F)(F)F)cc2)C(C)C)c1OCOC(C)=O [Compound 378] | < 80% | < 80% | > 80% | > 80% | > 80% | > 80% |
| COc1ccnc(C(=O)N[C@@H](C)C(=O)O[C@@H](C)[C@H](c2ccc(OC(C)C)cc2)C(C)C)c1OCOC(C)=O [Compound 379] | < 80% | < 80% | > 80% | < 80% | < 80% | < 80% |
| COc1ccnc(C(=O)N[C@@H](C)C(=O)O[C@@H](C)[C@H](c2ccc3c(c2)OCO3)C(C)C)c1OC(C)=O [Compound 380] | < 80% | < 80% | > 80% | > 80% | < 80% | < 80% |
| COc1ccnc(C(=O)N[C@@H](C)C(=O)O[C@@H](C)[C@H](c2ccc(OC(F)(F)F)cc2)C(C)C)c1OC(C)=O [Compound 381] | < 80% | < 80% | > 80% | < 80% | > 80% | > 80% |
| COc1ccc([C@H](C(C)C)[C@H](C)OC(=O)[C@H](C)NC(=O)c2nccc(OC)c2OCOC(C)=O)cc1 [Compound 382] | > 80% | < 80% | > 80% | > 80% | < 80% | > 80% |
| COc1ccc([C@H](C(C)C)[C@H](C)OC(=O)[C@H](C)NC(=O)c2nccc(OC)c2OC(C)=O)cc1 [Compound 383] | > 80% | < 80% | > 80% | < 80% | < 80% | < 80% |
